These results are taken from publication PMC5986738, “Thiazole Amides, A Novel Class of Algaecides against Freshwater Harmful Algae” (Scientific Reports, 2018).

≈ marks a conversion by molar mass, not a printed value. Read-outs that look alike come from different tables or passages of the source.

One experiment concerns C. pyrenoidosa. The experiment is described as follows: Algicidal activity (growth inhibition, microplate, absorbance 650 nm) against C. pyrenoidosa. The class given is cell-based, Chlorella pyrenoidosa. The note with it: for IC50: Auxenochlorella pyrenoidosa, read-out: IC50 value C. pyrenoidosa. Here is the method:
(§1) According to the method established by Schrader et al.[42], algicidal activity of alkaloid (1) and its amide analogues (7–32), as well as their hydrochloric salts (7S–27S), was evaluated against three typical […] algae, S. obliqnus, M. aeruginosa, and C. Pyrenoidosa at different concentrations. After three algae species were inoculated, the variation of algae density over 7 days were recorded continuously. […] The wavelength at 650 nm was determined as ideal incident wavelength for the measurement of algae density. Three […] algae S. obliqnus, M. aeruginosa, and C. pyrenoidosa were offered by Freshwater algae culture collection of the institute of Hydrobiology (FACHB-collection). Each culture for three species was maintained separately in continuous, steady-state growth microplates, which were placed in a growth chamber held at 28 ± 1 °C and illuminated continuously under fluorescent lights at a photon flux density of […]. Absorbance values of each wells were measured by a Packard model Spectra Count microplate photometer.
(§2) Alkaloid (1) and its analogues (7–32), as well as their hydrochloric salts (7S–27S), were dissolved separately in DMSO to provide stock solution concentrations. Initially, each stock solution was aseptically pipetted into the bottom of separate wells (20 μL per well) in a 96-well microplate and the final test concentrations for each sample were 0, 0.78, 1.56, 3.12, 6.25, 12.5, and 25 μg/mL. Wells of control samples contained only unialgal culture. The solution of CuSO4 and Diuron at the same concentration were chose as the reference sample. Each experiment was performed at least three times. Through measuring the area values under the individual growth curves, the inhibitory rate (%) for the individual tested concentration was calculated according to the following equation (1):1 Ii=(Ac−Ai)/[…]×100% • Ii: inhibitory rate of biomass growth by toxicant concentration i (%) • Ac: average area under the growth curve by control sample • Ai: average area under the growth curve by test concentration i
(§3) Mean values of 96-hour IC50 were determined for each group of plates, and standard deviation were calculated and reported as the mean ± SD.
(§4) The IC50 values of all compounds against three freshwater algae species were calculated using SPSS v19.0, and the algicidal activities of alkaloid (1) and its amide analogues (7–32), as well as the corresponding hydrochloric salts (7S–27S) are listed in Table 1 and 2, respectively.

A further experiment deals with M. aeruginosa. The experiment is described as follows: Algicidal activity (growth inhibition, microplate, absorbance 650 nm) against M. aeruginosa. Particulars: for IC50: Microcystis aeruginosa, read-out: IC50 value M. aeruginosa. The experiment is classed as cell-based. On the procedure: as §1, §2, §3, §4
Currently, M. aeruginosa appears to be the most harmful algae existing in the freshwater bodies in the developing countries. To investigate growth inhibitory potential of this class of thiazole amides on M. aeruginosa, thiazole amide (10) and its hydrochloric acid salt (10S) were subject to further survey for the optimal inhibition time and concentration (Figs 3 and 4). […] The variation of growth inhibitory ratios of compounds (10) and (10S) against M. aeruginosa at the lowest complete inhibition concentration is illustrated in Fig. 4. As observed, for administration of thiazole amide (10), the growth inhibitory ratios after 96 and 120 hours increase gradually to 79% and 92%, respectively. Under the same experimental conditions, growth inhibitory ratios for the salt (10S) are 82% and 88%, respectively.

In another experiment the test system is S. obliqnus. The experiment in a line: Algicidal activity (growth inhibition, microplate, absorbance 650 nm) against S. obliqnus. The experiment is classed as cell-based. Particulars: for IC50: 96 h, read-out: IC50 value S. obliqnus. Here is the method:
as §1, §2, §3, §4

As for `Cc1cc(NC(=O)c2csc([C@H](C)N)n2)ccc1F.Cl` [25S], the “IC50 value C. pyrenoidosa” value in the experiment with C. pyrenoidosa (96-hour IC50, mean ± SD) was determined as 1.59 ± 0.19 µg/mL. For the same compound, the “IC50 value M. aeruginosa” value with M. aeruginosa (96-hour IC50, mean ± SD) came to 1.79 ± 0.22 µg/mL. For the same compound, in the experiment with S. obliqnus (96-hour IC50, mean ± SD), the “IC50 value S. obliqnus” value was found to be 16.62 ± 1.48 µg/mL.
Consider `CCOC(=O)c1ccc(NC(=O)c2csc([C@H](C)N)n2)cc1.Cl` [26S], for which the “IC50 value C. pyrenoidosa” value in the experiment with C. pyrenoidosa (96-hour IC50, mean ± SD) stood at 2.38 ± 0.32 µg/mL. Moreover, the “IC50 value M. aeruginosa” value in the experiment on M. aeruginosa (96-hour IC50, mean ± SD) amounted to 2.46 ± 0.23 µg/mL. In the experiment on S. obliqnus (96-hour IC50, mean ± SD), the “IC50 value S. obliqnus” value was determined as 10.60 ± 1.18 µg/mL.
The like results for `O=S(=O)([O-])[O-].[Cu+2]` [CuSO4, reference compound] were, in that order, 1.56 ± 0.09 µg/mL, 1.29 ± 0.02 µg/mL and 0.99 ± 0.06 µg/mL.
`CN(C)C(=O)Nc1ccc(Cl)c(Cl)c1` [Diuron, reference compound]: the IC50 in the experiment on C. pyrenoidosa (96 h) worked out at 1.42 ± 0.27 µg/mL (≈ 6.09 µM); in the experiment on M. aeruginosa (96 h), 1.35 ± 0.15 µg/mL (≈ 5.79 µM); in the experiment on S. obliqnus, 0.79 ± 0.08 µg/mL (≈ 3.39 µM).
Consider `C[C@H](N)c1nc(C(=O)Nc2ccc(F)cc2)cs1` [compound 8], for which the half-maximal inhibitory concentration (IC50) was found to be 3.57 ± 0.37 µg/mL (≈ 13.5 µM) in the experiment on C. pyrenoidosa (96-hour IC50, mean ± SD); 4.51 ± 0.92 µg/mL (≈ 17 µM) with M. aeruginosa (96-hour IC50, mean ± SD); 2.74 ± 0.11 µg/mL (≈ 10.3 µM) with S. obliqnus (96-hour IC50, mean ± SD).
Turning to `C[C@H](N)c1nc(C(=O)Nc2ccc(Cl)cc2)cs1` [compound 9], the concentration for half-maximal inhibition (IC50) in the experiment on C. pyrenoidosa (96-hour IC50, mean ± SD) stood at 1.37 ± 0.12 µg/mL (≈ 4.86 µM); in the experiment on M. aeruginosa (96-hour IC50, mean ± SD), 2.19 ± 0.09 µg/mL (≈ 7.77 µM); in the experiment with S. obliqnus (96-hour IC50, mean ± SD) it was 4.12 ± 0.13 µg/mL (≈ 14.6 µM).
Take `Cc1ccc(NC(=O)c2csc([C@H](C)N)n2)cc1` [compound 11]: the IC50 was determined as 10.4 ± 1.12 µg/mL (≈ 39.8 µM) in the experiment on C. pyrenoidosa (96-hour IC50, mean ± SD); 6.16 ± 1.13 µg/mL (≈ 23.6 µM) with M. aeruginosa (96-hour IC50, mean ± SD); 2.66 ± 0.18 µg/mL (≈ 10.2 µM) in the experiment with S. obliqnus (96-hour IC50, mean ± SD).
Take `C[C@H](N)c1nc(C(=O)Nc2ccc(C(F)(F)F)cc2)cs1` [compound 13]: the IC50 with C. pyrenoidosa (96-hour IC50, mean ± SD) stood at 4.58 ± 0.23 µg/mL (≈ 14.5 µM); with M. aeruginosa (96-hour IC50, mean ± SD) it was 2.36 ± 0.12 µg/mL (≈ 7.48 µM); in the experiment on S. obliqnus (96-hour IC50, mean ± SD), 4.35 ± 0.17 µg/mL (≈ 13.8 µM).
Turning to `CC(N)c1nc(C(=O)Nc2cccc(Br)c2)cs1` (stereo not drawn) [compound 15], the “IC50 value C. pyrenoidosa” value in the experiment on C. pyrenoidosa (96-hour IC50, mean ± SD) was 5.77 ± 0.11 µg/mL (≈ 17.7 µM). For the same compound, the “IC50 value M. aeruginosa” value in the experiment with M. aeruginosa (96-hour IC50, mean ± SD) came out at 4.79 ± 0.15 µg/mL (≈ 14.7 µM).
Regarding `C[C@H](N)c1nc(C(=O)Nc2cccc(C(F)(F)F)c2)cs1` [compound 17], the IC50 with C. pyrenoidosa (96-hour IC50, mean ± SD) turned out to be 10.4 ± 0.99 µg/mL (≈ 33.1 µM); in the experiment on M. aeruginosa (96-hour IC50, mean ± SD), 12.2 ± 2.13 µg/mL (≈ 38.7 µM); in the experiment on S. obliqnus (96-hour IC50, mean ± SD) it was 9.21 ± 1.12 µg/mL (≈ 29.2 µM).
Taken in the same sequence, the figures for `C[C@H](N)c1nc(C(=O)Nc2ccccc2F)cs1` [compound 18] were 3.41 ± 0.14 µg/mL (≈ 12.9 µM), 2.55 ± 0.19 µg/mL (≈ 9.61 µM) and 3.95 ± 0.92 µg/mL (≈ 14.9 µM).
Regarding `C[C@H](N)c1nc(C(=O)Nc2ccccc2Cl)cs1` [compound 19], the IC50 in the experiment with C. pyrenoidosa (96-hour IC50, mean ± SD) stood at 8.16 ± 1.34 µg/mL (≈ 29 µM); in the experiment with M. aeruginosa (96-hour IC50, mean ± SD) it was 12.2 ± 1.16 µg/mL (≈ 43.4 µM).
For the compound `C[C@H](N)c1nc(C(=O)Nc2ccccc2Br)cs1` [compound 20], the IC50 turned out to be 2.84 ± 0.93 µg/mL (≈ 8.71 µM) in the experiment with C. pyrenoidosa (96-hour IC50, mean ± SD); 8.79 ± 1.23 µg/mL (≈ 26.9 µM) in the experiment on M. aeruginosa (96-hour IC50, mean ± SD); 3.31 ± 0.13 µg/mL (≈ 10.1 µM) in the experiment on S. obliqnus (96-hour IC50, mean ± SD).
In the case of `Cc1ccccc1NC(=O)c1csc([C@H](C)N)n1` [compound 21], the IC50 with C. pyrenoidosa (96-hour IC50, mean ± SD) came out at 26.1 ± 3.25 µg/mL (≈ 99.8 µM); in the experiment on M. aeruginosa (96-hour IC50, mean ± SD) it was 10.1 ± 1.71 µg/mL (≈ 38.5 µM).
In the case of `C[C@H](N)c1nc(C(=O)Nc2ccc(OC(F)(F)F)cc2)cs1` [compound 23], the IC50 is 3.8 ± 0.16 µg/mL (≈ 11.5 µM) in the experiment with C. pyrenoidosa (96-hour IC50, mean ± SD); 7.2 ± 0.71 µg/mL (≈ 21.7 µM) in the experiment with M. aeruginosa (96-hour IC50, mean ± SD); 5.93 ± 0.11 µg/mL (≈ 17.9 µM) with S. obliqnus (96-hour IC50, mean ± SD).
For `C[C@H](N)c1nc(C(=O)Nc2ccc(Cl)c(Cl)c2)cs1` [compound 24], the IC50 in the experiment on C. pyrenoidosa (96-hour IC50, mean ± SD) is 5.11 ± 1.01 µg/mL (≈ 16.2 µM); in the experiment on M. aeruginosa (96-hour IC50, mean ± SD), 9.81 ± 1.13 µg/mL (≈ 31 µM); with S. obliqnus (96-hour IC50, mean ± SD), 4.31 ± 0.21 µg/mL (≈ 13.6 µM).
Taken in the same sequence, the figures for `Cc1cc(NC(=O)c2csc([C@H](C)N)n2)ccc1F` [compound 25] were 5.1 ± 0.13 µg/mL (≈ 18.3 µM), 6.73 ± 1.21 µg/mL (≈ 24.1 µM) and 1.81 ± 0.07 µg/mL (≈ 6.48 µM).
Taken in the same sequence, the figures for `CCOC(=O)c1ccc(NC(=O)c2csc([C@H](C)N)n2)cc1` [compound 26] were 4.16 ± 0.56 µg/mL (≈ 13 µM), 3.29 ± 0.21 µg/mL (≈ 10.3 µM) and 29.5 ± 1.56 µg/mL (≈ 92.5 µM).
